# Laboratory results as given in patent publication US20080261942A1, “COMBINATIONS OF BILE ACID SEQUESTRANT(S) AND STEROL ABSORPTION INHIBITOR(S) AND TREATMENTS FOR VASCULAR INDICATIONS” (SCHERING CORPORATION, priority 2001, published 2008).
# Tested on: free cholesterol absorption
# Experiment: short term hamster model tracking a bolus of gavaged radiolabeled cholesterol
# Assay type: in vivo, Male Golden Syrian hamsters
# Source text: To follow the movement of lipids across the intestinal wall leading to its subsequent appearance in the lymph, blood and liver, a short term hamster model which tracked a bolus of gavaged radiolabeled lipid was used. Free cholesterol absorption was examined in this hamster model to explore whether the cholesterol absorption inhibitor compound of Formula (XII): […]
# Male Golden Syrian hamsters were fed a diet containing 0.5% cholesterol overnight and divided into groups of 5 animals. […] Two hours later, blood and liver samples were collected from each hamster. The blood was centrifuged for 20 minutes at 3000 rpm and the plasma was removed. Aliquots of the plasma and liver were analyzed for [^14C] radioactivity. Radioactive content was determined using a Beckman LSC (liquid […] counter).
# [1] = hamsters fed 0.5% cholesterol diet, gavage 1 h before [14C]-cholesterol, samples two hours later, Compound XII 3 mg/kg, cholestyramine 1 g/kg
# [2] = hamsters fed 0.5% cholesterol diet, samples two hours after [14C]-cholesterol, Compound XII 3 mg/kg, cholestyramine 1 g/kg
# [3] = specified dosage (Compound XII 3 mg/kg, cholestyramine 1 g/kg)
structure (smiles),measurement,setting,value
COc1ccc([C@@H]2[C@@H](CCCc3ccccc3)C(=O)N2c2ccc(OC)cc2)cc1 [Compound XII],Liver [14C]-cholesterol (DPM/gram of liver),[1],3755 ± 923 DPM/gram of liver
same,Plasma [14C]-cholesterol (Decays Per Minute (DPM)/milliter of plasma),[1],1438 ± 455 DPM/milliter of plasma
same,"Liver [14C]-cholesterol, change versus Control (in brackets)",[2],−53%
same,"Plasma [14C]-cholesterol, change versus Control (in brackets)",[2],−71%
same,reduction of liver (hepatic) [14C]-cholesterol levels,[3],53%
same,reduction of plasma [14C]-cholesterol levels,[3],71%
